Structures are written as SMILES.

This assay addresses T1, 14-3-3γ/ERRγ complex (Homo sapiens, UniProt P61981+P62508).
T1 construct: made in house; host or cells: E. coli NiCo21 (DE3)
Put plainly: Intact mass spectrometry (QTOF-MS) crosslinking of 14-3-3γ and ERRγ. It is filed as biochemical. The note with it: 14-3-3γ 5 μM; for consumption of apo-14-3-3γ into crosslinked ternary complex: ERRγ 25 μM, compound 50 μM, NaCNBH3 reduction, 4 h. The procedure: To further confirm the covalent crosslinking in solution, we performed intact mass spectrometry (MS) on the 14-3-3γ/ERRγ/5 and the 14-3-3γ/ERRγ/10 protein complexes. To ensure detection of the acid-labile imine-bonded complexes, the covalent imine bond was reduced in situ to the corresponding secondary amine using sodium cyanoborohydride. Samples were incrementally taken over 4 h and analyzed with high-resolution MS to determine crosslinking of the 14-3-3γ/ERRγ complex (Figure 2f–h and Figures S8 and S9). Intact MS analysis confirmed time-dependent crosslinking of the ternary complex (14-3-3γ/ERRγ/lock). […] A similar result was also observed for 10 (calculated mass: 33,080.4 Da) (Figure S11a–c).
Figure S8a. QTOF-MS analysis of 14-3-3/ERRg/5 ternary complex formation. LC-MS analysis of time-dependent crosslinking experiment of 14-3-3γ (5 µM) and ERRγ (25 µM) phosphopeptide by compound 5 (50 µM). Controls of just apo 14-3-3γ protein and protein incubated with compound 5 without ERRγ peptide are added. (Left) Chromatograms obtained for each sample after x amount of incubation. […] Calculated mass 14 -3-3γ […]
Figure S9. […] Based on the determined peak intensity of apo 14-3-3γ (peak A) and 14-3-3γ in complex with ERRg and staple 5 (peak B), the percentage of ternary complex is determined for each time point. […]
Different Scanning Fluorimetry (DSF) assays were performed using 40 µL samples containing 5 µM 14-3-3γ, 50 µM ERRγ pS179 9-mer peptide, 200 µM compound (or 1% DMSO) and 5x ProteoOrange (Lumiprobe, 5000x stock in DMSO) in 10 mM Hepes, 150 mM NaCl, 50 µM TCEP (pH 8.0). […] Fluorescence intensity was determined using excitation 470/40 nm and emission 570/20 nm filters. Based on these melting curves, the negative derivative melting curve is obtained from which the melting temperature Tm was determined. ΔTm values represent the differences in melting temperature relative to the DMSO control. All described melting temperatures are based on three independent experiments from which the average and standard deviations were determined using excel. […]

T1 sequence (P61981 whole entry, other chains not shown): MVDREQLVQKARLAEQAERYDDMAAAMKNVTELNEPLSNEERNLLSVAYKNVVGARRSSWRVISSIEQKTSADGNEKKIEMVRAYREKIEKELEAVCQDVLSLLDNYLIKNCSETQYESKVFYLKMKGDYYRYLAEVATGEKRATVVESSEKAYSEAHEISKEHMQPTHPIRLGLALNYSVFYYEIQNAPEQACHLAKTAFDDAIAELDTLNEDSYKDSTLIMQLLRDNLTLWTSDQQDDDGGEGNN

With `CN(C)CCSSCCN(C)C(=O)c1cc(Br)cc(C=O)c1` [compound 10], the “consumption of apo-14-3-3γ into crosslinked ternary complex” value is “complete consumption of apo-14-3-3γ was not observed”.

In the case of `CN(C)CCSSCCN(C)C(=O)c1ccc(C=O)c(F)c1` [compound 5], the “consumption of apo-14-3-3γ into crosslinked ternary complex” value is on record as “near quantitative consumption of apo-14-3-3γ”. Moreover, the “crosslinking of 14-3-3/ERRγ in isolation” value (only ERRγ phosphopeptide 10 μM, 5 50 μM) is on record as about 70%.

Values taken from PMC10064330, “Reversible Dual-Covalent Molecular Locking of the 14-3-3/ERRγ Protein–Protein Interaction as a Molecular Glue Drug Discovery Approach” (Journal of the American Chemical Society, 2023).
